pIC50, pKd: −log10 of the molar value.
Assays:
[1] = target: T1, catalytic domain of Human PARP (Homo sapiens, UniProt P09874); assay: Biacore surface plasmon resonance affinity assay (dissociation constant KD); type: binding; details: pKD=-log(KD), KD in molar concentration; Biacore T100, 25° C.
T1 construct: The catalytic domain of Human PARP was cloned and prepared; made in house
Protocol: Dissociation Constant (KD) from Surface Plasmon Resonance
The catalytic domain of Human PARP was cloned and prepared as described in Kinoshita, T.; Nakanishi, I.; Warizaya, M.; Iwashita, A.; Kido, Y.; Hattori, K. and Fujii, T. 2006 FEBS Letters 556, 43-46. Purified enzyme was stored at −80° C. in 25 mM Tris(hydroxymethyl)aminomethane (Tris) pH 7.4, 150 mM NaCl, 2 mM dithiothreitol (DTT) at a concentration of 6 mg/ml.
Biacore affinity assays for test compounds were conducted on a Biacore T100 (GE Healthcare) as follows. A Series S Sensor Chip CM5 (part number BR-1006-68, GE Healthcare) was activated for amide coupling with an Amine Coupling Kit (part number BR-1000-50, GE Healthcare) as described by the manufacturer. The mobile phase buffer consisted of Biacore buffer HBS-P (part number BR-1003-68, GE Healthcare) supplemented with 1% v/v dimethylsulfoxide (DMSO), 0.5 mM Tris(2-carboxyethyl)phosphine hydrochloride (TCEP), and 5 mM MgCl2. Enzyme samples (2 μl/6 mg/ml) stored at −80° C. were diluted to 0.080 mg/ml with 10 mM 4-morpholineethanesulfonic acid (MES) pH 6.5 and then mounted on the activated Biacore CM5 chip at a flow rate of 10 μl/min for 240 seconds. When successfully mounted, a signal of approximately 8,000 reflective units was observed. Test compounds were diluted 9 times 2-fold serially in mobile phase buffer (listed above) at 1% v/v DMSO final to generate a concentration gradient bracketing their anticipated KDs. Biacore mounted PARP was given a 1 minute exposure (association phase) to various concentrations of test compounds to observe a steady state equilibrium or an on rate. The exposure was followed with a dissociation phase of 5 minutes. The association and dissociation phases were at a flow rate of 50 μl/min and a temperature of 25° C.
Parameters Rmax (response at saturation) and KD (binding constant) were calculated through a nonlinear least squares fitting of the equation to the data by use of the Biacore T100 analysis software.
Parameter optimization was through a nonlinear least squares analysis of the association phase Response=Rmax*(1−exp(−(kon[cmpd]+koff)*t)) and dissociation phase Response=[…] by use of the Biacore T100 analysis software. The binding constant KD was calculated from the definition KD=koff/kon

Jurkat cell line = assay: PARP cellular chemopotentiation assay (MTS cell viability with and without TMZ); type: cell-based; details: ratio of EC50 for inhibition of cell viability without and with 100 μM TMZ; Jurkat cells, 96 hours of treatment
How it was run: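 Jurkat cells, 10,000/well, pre-cultured 24 h, then treated 96 h with serial compound dilutions (0.5% DMSO) with or without 100 μM TMZ. Viability by MTS conversion (OD490), normalized to DMSO controls; EC50 from curve fits, PF50 = EC50 without TMZ / EC50 with TMZ.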

PARP = target: T2, PARP (Homo sapiens, UniProt P09874); assay: PARP ELISA colorimetric assay of inhibition of PARP catalytic activity (IC50); type: biochemical; details: pIC50=-log(IC50), IC50 in molar concentration; ELISA-based PARP kit, 10 minutes of catalysis
T2 construct: purchased Trevigen 4684-096-01 (enzyme); kit 4684-096-K HT
How it was run: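 Human PARP was added as a 0.1 nM solution to histone-coated wells with compound for a 10-min ambient preincubation. The reaction was started with 100 μM NAD+ solution plus activated DNA and run 10 min. PAR formation was detected by anti-PAR ELISA, colorimetric. IC50 came from a 12-point, 3-fold gradient fitted by nonlinear least squares to a Hill equation.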

T2 sequence (P09874 whole entry): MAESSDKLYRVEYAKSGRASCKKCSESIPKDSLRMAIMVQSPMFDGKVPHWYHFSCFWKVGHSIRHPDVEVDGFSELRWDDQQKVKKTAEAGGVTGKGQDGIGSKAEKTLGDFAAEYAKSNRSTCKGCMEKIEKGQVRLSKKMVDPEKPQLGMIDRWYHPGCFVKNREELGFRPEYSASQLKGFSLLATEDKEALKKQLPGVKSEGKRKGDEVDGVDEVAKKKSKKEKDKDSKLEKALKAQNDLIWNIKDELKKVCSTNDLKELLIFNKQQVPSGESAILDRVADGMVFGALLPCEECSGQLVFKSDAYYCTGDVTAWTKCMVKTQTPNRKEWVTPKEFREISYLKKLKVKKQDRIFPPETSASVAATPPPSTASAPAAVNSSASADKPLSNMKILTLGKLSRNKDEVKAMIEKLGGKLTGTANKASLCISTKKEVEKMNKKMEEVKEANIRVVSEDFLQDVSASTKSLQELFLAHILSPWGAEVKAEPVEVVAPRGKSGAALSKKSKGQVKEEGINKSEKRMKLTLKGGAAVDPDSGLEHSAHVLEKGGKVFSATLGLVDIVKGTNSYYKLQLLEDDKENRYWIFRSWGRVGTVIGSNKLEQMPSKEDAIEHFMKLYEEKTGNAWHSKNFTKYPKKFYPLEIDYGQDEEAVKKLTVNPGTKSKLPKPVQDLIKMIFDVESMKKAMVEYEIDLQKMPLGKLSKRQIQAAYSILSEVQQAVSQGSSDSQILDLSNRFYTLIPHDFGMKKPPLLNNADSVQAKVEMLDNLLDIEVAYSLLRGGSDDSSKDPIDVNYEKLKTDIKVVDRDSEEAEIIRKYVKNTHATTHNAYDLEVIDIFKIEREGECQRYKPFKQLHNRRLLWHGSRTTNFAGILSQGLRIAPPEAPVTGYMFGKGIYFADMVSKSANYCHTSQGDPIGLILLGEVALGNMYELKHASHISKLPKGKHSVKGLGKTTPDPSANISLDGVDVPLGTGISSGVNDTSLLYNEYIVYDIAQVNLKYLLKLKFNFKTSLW
T1 sequence (P09874 788-1014 limits assumed): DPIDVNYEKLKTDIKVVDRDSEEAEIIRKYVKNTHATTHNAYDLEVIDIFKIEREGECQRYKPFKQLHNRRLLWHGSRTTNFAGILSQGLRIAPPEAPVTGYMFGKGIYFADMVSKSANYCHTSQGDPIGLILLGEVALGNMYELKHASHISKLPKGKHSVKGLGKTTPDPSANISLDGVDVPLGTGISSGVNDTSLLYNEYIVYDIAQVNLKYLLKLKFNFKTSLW

| Structure (SMILES) | melting point | pIC50 (PARP) | pKd [1] | PF50 (Jurkat cell line) |
| --- | --- | --- | --- | --- |
| O=C1Nc2cc(CN3CC=C(c4ccc(Cl)cc4)CC3)cnc2N2CCC[C@@H]12 [Compound 2, (S)-3-((4-(4-chlorophenyl)-5,6-dihydropyridin-1(2H)-yl)methyl)-6a,7,8,9-tetrahydropyrido[3,2-e]pyrrolo[1,2-a]pyrazin-6(5H)-one] | 234 to 235 °C | – | > 7.50 | >2000 |
| N#Cc1ccc(N2CCN(Cc3cnc4c(c3)NC(=O)[C@@H]3CCCN43)CC2)nc1 [Compound 5, (S)-6-(4-((6-oxo-5,6,6a,7,8,9-hexahydropyrido[3,2-e]pyrrolo[1,2-a]pyrazin-3-yl)methyl)piperazin-1-yl)nicotinonitrile] | 252 to 256 °C | 7.40 to 7.80 | > 7.50 | >5000 |
| Cc1cc(C(=O)NC2CC2)ccc1N1CCN(Cc2cnc3c(c2)NC(=O)[C@@H]2CCCN32)CC1 [Compound 142, (S)—N-cyclopropyl-3-methyl-4-(4-((6-oxo-5,6,6a,7,8,9-hexahydropyrido[3,2-e]pyrrolo[1,2-a]pyrazin-3-yl)methyl)piperazin-1-yl)benzamide] | 226.7 to 233.5 °C | ≥ 7.90 | – | >2000 |

Second part, led by results:

| melting point | pIC50 (PARP) | Structure (SMILES) | pKd [1] | PF50 (Jurkat cell line) |
| --- | --- | --- | --- | --- |
| 99.2 °C | ≤ 7.30 | CN(C)C(=O)c1ccc(N2CCN(Cc3cnc4c(c3)NC(=O)[C@@H]3CCCN43)CC2)cc1 [Compound 139, (S)—N,N-dimethyl-4-(4-((6-oxo-5,6,6a,7,8,9-hexahydropyrido[3,2-e]pyrrolo[1,2-a]pyrazin-3-yl)methyl)piperazin-1-yl)benzamide] | – | ≧0 |
| 91.9 °C | ≤ 7.30 | CCN(C)C(=O)c1ccc(N2CCN(Cc3cnc4c(c3)NC(=O)[C@@H]3CCCN43)CC2)cc1 [Compound 140, (S)—N-ethyl-N-methyl-4-(4-((6-oxo-5,6,6a,7,8,9-hexahydropyrido[3,2-e]pyrrolo[1,2-a]pyrazin-3-yl)methyl)piperazin-1-yl)benzamide] | – | ≧0 |
